Results taken from patent US5104859A, “Continuous administration of adenosine to reduce pulmonary vascular resistance” (priority 1990, dated 1992).
Entries after “also recorded” stand apart in the source; their conditions may differ. Where two headings read alike, the source gives them in different places.

Legend:
[1] = Purine levels in arterial plasma before, during and after adenosine-induced controlled hypotension (HPLC); conditions: for concentration: Table I, mean ± SEM
Procedure: (§1) Blood gases were measured with appropriate electrodes for pH, PCO2, and PO2 (Radiometer, Copenhagen). The hemoglobin concentration was determined spectrophotometrically. Samples for the determination of adenosine and its metabolites were collected as described by Sollevi et al., Acta Physiol. Scand., 120: 171-76 (1984). Adenosine and inosine were purified and analyzed by HPLC as described by Fredholm and Sollevi., J. Physiol. (London), 313: 351-67 (1981). Hypoxanthine, xanthine, and uric acid were analyzed by HPLC according to the method of Schweinsberg and Loo., J. Chromatogr., 181: 103-7 (1980). Arterial levels of dipyridamole were determined by HPLC. J. Chromatogr., 162: 98-103 (1979). Blood lactate was measured according to Tfelt-Hansen and Siggard-Andersen. Scand. Clin. Lab. Invest., 27:15-19 (1971).
(§2) Measurements and blood samplings were performed immediately before hypotension, as late as possible during hypotension (1-5 min before terminating the infusion) and approximately 30 min after the hypotensive period.
(§3) Dipyridamole (5 mg. per ml) was infused iv (0.3-0.4 mg. per kg. over a period of 5-10 min) approximately 20 minutes prior to the induction of controlled hypotension. […] (See Pedersen, J. Chromatogr., 162: 98-103 (1979).
(§4) The infusion was started at a rate of 0.01 mg. per kg. per minute, which was doubled at 15 second intervals until the desired MABP level of 40-50 mmHg was reached. […] Serum creatinine was determined before and on two consecutive days after operation. The standard ECG was recorded the day before and the day after operation.
(§5) The statistical significance (control 1 vs. adenosine and control 1 vs. control 2) was determined by Student's t test for paired data. A P value of <0.05 was regarded as significant.
The purine levels of nine of the patients were determined prior to, during and after adenosine-induced controlled hypotension.

[2] = Plasma adenosine and metabolite concentrations during cardiopulmonary bypass (HPLC); conditions: for concentration: read-out: Venous concentration, 20 min
Procedure: In six cases the plasma adenosine levels were determined by high performance liquid chromatography (HPLC) (Fredholm and Sollevi, J. Physiol. (London), 313: 351-67 (1981) in arterial and in venous (venous lines to the oxygenator) blood. The adenosine metabolites inosine, hypoxanthine and uric acid were also determined by HPLC. The samples were collected as previously described (Sollevi, Acta. Physiol. Scand., 121: 165-72 (1984) at the intervals of 10, 20, 40 and 80 minutes during CPB and 20 minutes after CPB.
Statistical significance (controls v. adenosine group) was determinted with Student's t-test for unpaired data. For significance within the groups the Wilcoxon Rank Sum test was used. p […] 0.05 was regarded as significant.

[3] = system: myocardial blood flow; conditions: investigated in abdominal vascular surgery; words; cited from earlier work
[4] = system: cardiovascular system; conditions: cited from earlier work
[5] = system: systemic arterial blood pressure and central hemodynamics; experiment: Controlled hypotension during anesthesia: central hemodynamics (dipyridamole-pretreated cerebral aneurysm surgery patients); conditions: in five of the patients
Procedure: One hour before the operation the patients were premedicated orally with diazepam (10-20 mg.) Atropine (0.5 mg) and droperidol (0.1 mg. per kg.) were given intravenously before induction of anesthesia. Induction was started with thiopental (5 mg. per kg) followed by phenoperidine (1-2 mg), a synthetic opiate with pharmacodymanics resembling fentanyl but with a longer duration of action and 1/10 of its analgesic potency.
Pancuronium bromide (0.1 mg per kg) was given to facilitate endotracheal intubation. Anesthesia was maintained by supplementary doses of phenoperidine and droperidol, as required. […] Phenoperidine was supplemented regularly to prevent the blood pressure from exceeding the preanesthetic level (approx. 1 mg/30-60 min). Controlled hyperventilation was employed with a humidified gas mixture of 60% N2 O in oxygen to maintain PaCO2 values at approximately 30 mmHg (±1.5/SEM). Mannitol (1-1.5 g. per kg) was given routinely at the start of the operation (e.g., 1-2 hours prior to the controlled hypotension). The patients were operated on in the horizontal supine position.
A 1.2-mm plastic cannula was introduced into the left radial artery to monitor systemic arterial blood pressure (MABP) and collect arterial blood. A balloon-tipped, flow-directed, quadruple lumen Swan-Ganz catheter (Model 93A-831-7.5 F, VIP) was inserted percutaneously via the left basilic vein, and its correct position in the pulmonary artery was determined by pressure tracings. The catheter was used for the monitoring of mean right atrial pressure (RAP), mean pulmonary artery pressure (PAP), and mean pulmonary capillary wedge pressure (PCWP) for the determination of cardiac output and collection of mixed venous blood and for the infusion of adenosine. Another plastic cannula was introduced percutaneously, in a retrograde direction, into the right jugular bulb for the collection of blood. The correct position was verified by x-ray.
The ECG was monitored with a standard chest (V5) lead. Heart rate was determined from the R-R interval. Blood pressures were measured by transducers placed at the midthoracic level. Cardiac output (QT) was determined in triplicate according to the thermodilution technique with a cardiac output computer (Edwards Lab, model 9510). Isotonic glucose, 10 ml at 1° C., was used as a thermal indicator. The ECG, heart rate, blood pressures, and thermodilution curves were recorded on a Grass® polygraph.
as §2, §3, §4
Systemic vascular resistance (SVR) was derived from the formula [formula] and pulmonary vascular resistance (PVR) from the formula [formula]
as §5

[6] = system: heart muscle; conditions: injection; cited from earlier work
[7] = system: adenosine uptake by red blood cells; conditions: cited from earlier work
[8] = system: mean arterial blood pressure; conditions: dipyridamole 1 mg/kg, dogs; cited from earlier work
[9] = Plasma level of dipyridamole (HPLC); type: in vivo, human; conditions: 0.3-0.4 mg/kg iv over 5-10 min; SEM; read-out: dipyridamole plasma level during hypotensive periods
Procedure: as §1, §3

[10] = during / after adenosine infusion, in words
[11] = read-out: Purine level in arterial plasma, after hypotension, 20-40 min, 20-40 min after hypotension
[12] = read-out: Purine level in arterial plasma, during hypotension, during i.v. adenosine infusion, dipyridamole-pretreated
[13] = CPB 10', adenosine infusion 0.1 mg/kg/min, n = 6
[14] = CPB 20', adenosine infusion 0.1 mg/kg/min, n = 6
[15] = CPB 40', adenosine infusion 0.1 mg/kg/min, n = 6
[16] = CPB 80', adenosine infusion 0.1 mg/kg/min, n = 6
[17] = human, venous plasma, iv, 0.1 mg/kg/min, Venous concentration

O=c1[nH]cnc2nc[nH]c12 [Hypoxanthine, hypoxanthine]
change of adenosine metabolite levels ([1]; in vivo): increased during the infusion | Arterial concentration ([2]; in vivo): 4.2 ± 0.9 µM

O=c1[nH]c(=O)c2[nH]c(=O)[nH]c2[nH]1 [Uric Acid, uric acid]
change of adenosine metabolite levels [1, 10]: unaffected | concentration [1, 11]: 200000 ± 28800 nM | concentration [1, 12]: 198000 ± 22700 nM | Arterial concentration ([2]; 20' post CPB, n = 6): 260 ± 34 µM | Arterial concentration [2, 13]: 260 ± 32 µM | Arterial concentration [2, 14]: 269 ± 35 µM | Arterial concentration [2, 15]: 250 ± 32 µM | Arterial concentration [2, 16]: 249 ± 30 µM

FC(F)OC(Cl)C(F)(F)F (stereo not drawn) [isoflurane]
coronary flow / coronary blood flow [3]: no beneficial effect; also recorded: may reduce coronary blood flow | cardiac blood flow ([4]; in vivo): tendency to reduce cardiac blood flow

CCCCC[C@H](O)/C=C/[C@@H]1[C@H]2C/C(=C/CCCC(=O)O)O[C@H]2C[C@H]1O [prostacyclin]
systemic vasodilation and hypotension ([4]; coronary bypass surgery): severe systemic vasodilation and hypotension

NNc1nncc2ccccc12 [hydralazine]
heart rate ([4]; in vivo): increase heart rate

OCCN(CCO)c1nc(N2CCCCC2)c2nc(N(CCO)CCO)nc(N3CCCCC3)c2n1 [dipyridamole]
decrease of MABP by dipyridamole infusion [5]: approximately 10 mmHg | redistribution of flow within heart muscle [6]: augment the redistribution of flow within the heart muscle | adenosine uptake inhibition [7]: inhibiting cellular uptake of adenosine | adenosine uptake inhibition ([7]; listed as Dipryridamol): adenosine uptake inhibitor | reduction of mean arterial blood pressure by dipyridamole [8]: 20% | concentration [9]: 1200 ± 300 nM

OC[C@H]1O[C@@H](n2cnc3c(O)ncnc32)[C@H](O)[C@@H]1O [Inosine, inosine]
change of adenosine metabolite levels [1, 10]: remained slightly above basal levels 20-40 minutes after the infusion | change of adenosine metabolite levels ([1]; during / after adenosine infusion, in words, listed as inosine): increased during the infusion | concentration ([1]; read-out: Purine level in arterial plasma, after hypotension, 3-9 min, 3-9 min after hypotension): 690 ± 260 nM | concentration [1, 11]: 290 ± 150 nM | concentration [1, 12]: 3010 ± 1480 nM | Arterial concentration ([2]; 20' post CPB, n = 6): 0.4 ± 0.1 µM | Arterial concentration [2, 13]: 1.3 ± 0.7 µM | Arterial concentration [2, 14]: 2.5 ± 1.0 µM | Arterial concentration [2, 15]: 1.2 ± 0.3 µM | Arterial concentration [2, 16]: 1.4 ± 0.4 µM | concentration at 10 min [2, 17]: 900 ± 300 nM | concentration at 40 min [2, 17]: 1600 ± 500 nM | concentration at 80 min [2, 17]: 1600 ± 400 nM | metabolite elevation during infusion ([2]; in vivo): consistently elevated | concentration ([2]; 20' post CPB, n = 6): 400 ± 100 nM | concentration [2, 14]: 2400 ± 1200 nM

O=c1[nH]c(=O)c2[nH]cnc2[nH]1 [Xanthine, xanthine]
change of adenosine metabolite levels ([1]; in vivo): unaffected

COc1cc2nc(N3CCN(C(=O)c4ccco4)CC3)nc(N)c2cc1OC [prazosin]
heart rate ([4]; in vivo): increase heart rate | onset and predictability of action ([4]; in vivo): slow onset and unpredictable action
